Assay results: patent US11478460B2, “Diaryl substituted 6,5-fused ring compounds as C5aR inhibitors” (CHEMOCENTRYX, INC., priority 2017, dated 2022)

What follows are molecules tested against C5aR (Homo sapiens (Human), UniProt P21730) (assay: Chemotaxis assay using U937 cells (C5aR mediated migration)). Details: read-out: Mig IC50.
Type: cell-based
Summary of the method: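 U937 monocytic cells, pretreated overnight with 0.5 mM cyclic AMP, placed at 100,000 cells in the upper well above 5 μm polycarbonate filters. Lower well held 0.03 nM C5a plus compound in HBSS/1% FBS; after 1.5 h at 37° C migrated cells counted directly or by CyQuant, giving IC50.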

C5aR, sequence (P21730 whole entry): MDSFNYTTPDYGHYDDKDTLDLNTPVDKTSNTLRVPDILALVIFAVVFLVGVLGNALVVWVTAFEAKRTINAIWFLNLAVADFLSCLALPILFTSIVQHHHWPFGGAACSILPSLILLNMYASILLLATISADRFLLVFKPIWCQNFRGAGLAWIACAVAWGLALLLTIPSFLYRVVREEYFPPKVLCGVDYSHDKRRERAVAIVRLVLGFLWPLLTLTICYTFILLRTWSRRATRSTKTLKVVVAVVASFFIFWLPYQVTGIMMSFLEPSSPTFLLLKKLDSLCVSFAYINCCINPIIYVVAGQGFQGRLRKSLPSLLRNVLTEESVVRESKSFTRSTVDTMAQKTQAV

Row | Compound | IC50 [nM]
1 | Cc1cccc(OCC(C)C)c1-n1nc2c(c1-c1ccc(NC(N)=O)cc1)CN(c1ccc(C(F)(F)F)cc1F)CC2 [Example 1.378] | 5 to 50
2 | Cc1cccc(OCC(C)C)c1-n1nc2c(c1-c1ccc(NC(N)=O)cc1)CN(c1ccc(Cl)c(C(F)(F)F)c1)CC2 [Example 1.379] | 5 to 50
3 | Cc1ccc(C(C)(C)O)nc1N1CCc2nn(-c3c(C)cccc3OCC(C)C)c(-c3ccc(NC(N)=O)cc3)c2C1 [Example 1.383] | 50 to 500
4 | Cc1cccc(OCC(C)C)c1-n1nc2c(c1-c1ccc(NC(N)=O)cc1)CN(c1nc(C(F)(F)F)ccc1F)CC2 [Example 1.386] | 5 to 50
5 | Cc1ccc(C(C)(C)C)cc1N1CCc2nn(-c3c(C)cccc3CCC(C)C)c(-c3ccc(NC(N)=O)cc3)c2C1 [Example 1.387] | 5 to 50
6 | Cc1cccc(OCC(C)C)c1-n1nc2c(c1-c1ccc(NC(N)=O)cc1)CN(CC(C)(C)O)CC2 [Example 1.389] | > 500
7 | Cc1cccc(OCC(C)C)c1-n1nc2c(c1-c1ccc(NC(N)=O)cc1)CN(Cc1ccccc1C(C)C)CC2 [Example 1.390] | 5 to 50
8 | Cc1cccc(OCC(C)C)c1-n1nc2c(c1-c1ccc(NC(N)=O)cc1)CN(CC(C)C(F)(F)F)CC2 (stereo not drawn) [Example 1.391] | 5 to 50
9 | Cc1cccc(OCC(C)C)c1-n1nc2c(c1-c1ccc(NC(N)=O)cc1)CN(Cc1cccc(C(C)(C)C)c1)CC2 [Example 1.392] | 5 to 50
10 | Cc1cccc(OCC(C)C)c1-n1nc2c(c1-c1ccc(NC(N)=O)cc1)CN(CCC(C)(C)C)CC2 [Example 1.393] | 50 to 500
11 | Cc1cccc(OCC(C)C)c1-n1nc2c(c1-c1ccc(NC(N)=O)cc1)CN(c1cc(C(C)(C)C)ccn1)CC2 [Example 1.395] | 5 to 50
12 | Cc1ccc(C(C)C)cc1N1CCc2nn(-c3c(C)cccc3OCC(C)C)c(-c3ccc(NC(N)=O)cc3)c2C1 [Example 1.396] | 5 to 50
13 | Cc1ccc(C(C)(C)C)cc1N1CCc2nn(-c3ccccc3C(C)C)c(-c3ccc(N(C)C(N)=O)cc3)c2C1 [Example 1.402] | > 500
14 | Cc1cccc(OCC(C)C)c1-n1nc2c(c1-c1ccc(NC(N)=O)cc1)CN(C1CCCCC1)CC2 [Example 1.406] | 50 to 500
15 | Cc1cccc(OCC(C)C)c1-n1nc2c(c1-c1ccc(NC(N)=O)cc1)CN(c1ccc(C(F)(F)F)cc1)CC2 [Example 1.407] | 5 to 50
16 | COc1cccc(C)c1-n1nc2c(c1-c1ccc(NC(N)=O)cc1)CN(c1ncccc1C)CC2 [Example 1.408] | 50 to 500
17 | Cc1cccc(OCC(C)C)c1-n1nc2c(c1-c1ccc(C(N)=O)cc1)CN(C(=O)OC(C)(C)C)CC2 [Example 1.411] | > 500
18 | Cc1cccc(OCC(C)C)c1-n1nc2c(c1-c1ccc(NC(N)=O)cc1)CN(c1ccc(C(F)(F)F)c(Cl)c1)CC2 [Example 1.413] | 5 to 50
19 | Cc1cccc(CC(C)C)c1-n1nc2c(c1-c1ccc(NC(N)=O)cc1)CN(C(=O)OC(C)(C)C)CC2 [Example 1.415] | 50 to 500

Row | Compound | IC50 [nM]
20 | CC(C)c1ccccc1-n1nc2c(c1-c1ccc(NC(N)=O)cc1)CN(C(=O)OC(C)(C)C)CC2 [Example 1.416] | > 500
21 | Cc1cccc(C)c1-n1nc2c(c1-c1ccc(NC(N)=O)cc1)CN(C(=O)OC(C)(C)C)CC2 [Example 1.417] | 50 to 500
22 | Cc1cccc(OCC(C)C)c1-n1nc2c(c1-c1ccc(NC(N)=O)cc1)CN(c1ccc(F)cc1C(C)C)CC2 [Example 1.419] | 5 to 50
23 | Cc1cccc(C)c1-n1nc2c(c1-c1ccc(C(N)=O)cc1)CN(C(=O)OC(C)(C)C)CC2 [Example 1.420] | > 500
24 | Cc1cccc(OCC(C)C)c1-n1nc2c(c1-c1ccc(NC(N)=O)cc1)CN(c1cc(C(C)(C)C)ccc1F)CC2 [Example 1.421] | ≤ 5
25 | Cc1cccc(OCC(C)C)c1-n1nc2c(c1-c1ccc(NC(N)=O)cc1)CN(C(=O)C1CCCCC1)CC2 [Example 1.425] | > 500
26 | Cc1cccc(OCC(C)C)c1-n1nc2c(c1-c1ccc(NC(N)=O)cc1)CN(C(=O)C1CCC1)CC2 [Example 1.426] | 50 to 500
27 | Cc1cc(F)c(C(C)C)cc1N1CCc2nn(-c3c(C)cccc3OCC(C)C)c(-c3ccc(NC(N)=O)cc3)c2C1 [Example 1.427] | ≤ 5
28 | Cc1cccc(C(C)C)c1-n1nc2c(c1-c1ccc(NC(N)=O)cc1)CN(C(=O)OC(C)(C)C)CC2 [Example 1.428] | 50 to 500
29 | Cc1cccc(OCC(C)C)c1-n1nc2c(c1-c1ccc(NC(N)=O)cc1)CN(C(=O)c1ccccc1)CC2 [Example 1.431] | 50 to 500
30 | Cc1cccc(OCC(C)C)c1-n1nc2c(c1-c1ccc(NC(N)=O)cc1)CN(C(=O)c1ccccc1C(C)C)CC2 [Example 1.434] | 50 to 500
31 | Cc1cccc(OCC(C)C)c1-n1nc2c(c1-c1ccc(NC(N)=O)cc1)CN(C(=O)CC(C)(C)C)CC2 [Example 1.435] | 50 to 500
32 | Cc1cccc(OCC(C)C)c1-n1nc2c(c1-c1ccc(NC(N)=O)cc1)CN(C(=O)C(C)(C)C)CC2 [Example 1.436] | 50 to 500
33 | Cc1cccc(OCC(C)C)c1-n1nc2c(c1-c1ccc(NC(N)=O)cc1)CN(C(=O)NC(C)(C)C)CC2 [Example 1.437] | > 500
34 | Cc1cccc(OCC(C)C)c1-n1nc2c(c1-c1ccc(NC(N)=O)cc1)CN(C(=O)OC(C)(C)C)CC2 [Example 1.439] | 5 to 50
35 | Cc1ccc(N2CCc3nn(-c4c(C)cccc4OCC(C)C)c(-c4ccc(NC(N)=O)cc4)c3C2)cc1C(F)(F)F [Example 1.440] | 5 to 50
36 | Cc1ccc(C(C)(C)C)cc1N1CCc2nn(-c3c(C)cccc3C)c(-c3ccc(NC(N)=O)cc3)c2C1 [Example 1.442] | 5 to 50
37 | Cc1ccc(C(C)(C)C)cc1N1CCc2nn(-c3c(C)cccc3OC(C)C)c(-c3ccc(NC(N)=O)cc3)c2C1 [Example 1.444] | ≤ 5
38 | Cc1ccc(C(C)(C)C)cc1N1CCc2nn(-c3c(C)cccc3OCC(C)C)c(-c3ccc(C(N)=O)cc3)c2C1 [Example 1.445] | 5 to 50

The remaining lines, values ahead:

Row | IC50 [nM] | Compound
39 | 5 to 50 | CCc1cccc(C)c1-n1nc2c(c1-c1ccc(NC(N)=O)cc1)CN(c1cc(C(C)(C)C)ccc1C)CC2 [Example 1.380]
40 | 5 to 50 | CCC(C)(C)CN1CCc2nn(-c3c(C)cccc3OCC(C)C)c(-c3ccc(NC(N)=O)cc3)c2C1 [Example 1.381]
41 | 5 to 50 | Cc1cccc(OCC(C)C)c1-n1nc2c(c1-c1ccc(NC(N)=O)cc1)CN(Cc1ccccc1)CC2 [Example 1.382]
42 | 5 to 50 | Cc1cc(C(F)(F)F)ccc1CN1CCc2nn(-c3c(C)cccc3OCC(C)C)c(-c3ccc(NC(N)=O)cc3)c2C1 [Example 1.384]
43 | 50 to 500 | Cc1cccc(OCC(C)C)c1-n1nc2c(c1-c1ccc(NC(N)=O)cc1)CN(CC(C)C)CC2 [Example 1.385]
44 | 5 to 50 | Cc1ccc(C(C)(C)C)cc1N1CCc2nn(-c3c(C)cccc3C(C)C)c(-c3ccc(NC(N)=O)cc3)c2C1 [Example 1.388]
45 | 50 to 500 | Cc1cccc(OCC(C)C)c1-n1nc2c(c1-c1ccc(NC(N)=O)cc1)CN(C1CCCC1C)CC2 (stereo not drawn) [Example 1.397]
46 | 50 to 500 | CCc1cccc(C)c1-n1nc2c(c1-c1ccc(NC(N)=O)cc1)CN(C(=O)OC(C)(C)C)CC2 [Example 1.399]
47 | > 500 | Cc1ccc(C(C)(C)C)cc1N1CCc2nn(-c3c(C)cccc3CC(C)C)c(-c3ccc(N(C)C(N)=O)cc3)c2C1 [Example 1.400]
48 | ≤ 5 | Cc1ccc(C(C)(C)C)cc1N1CCc2nn(-c3c(C)cccc3CC(C)C)c(-c3ccc(NC(N)=O)cc3)c2C1 [Example 1.401]
49 | 50 to 500 | Cc1ccc(C(C)(C)C)cc1N1CCc2nn(-c3ccccc3C(C)C)c(-c3ccc(NC(N)=O)cc3)c2C1 [Example 1.403]
50 | 5 to 50 | Cc1cccc(OCC(C)C)c1-n1nc2c(c1-c1ccc(NC(N)=O)cc1)CN(CC1CCCC1)CC2 [Example 1.404]
51 | 5 to 50 | Cc1cccc(OCC(C)C)c1-n1nc2c(c1-c1ccc(NC(N)=O)cc1)CN(CC(C)(C)C)CC2 [Example 1.405]
52 | 5 to 50 | COc1cccc(C)c1-n1nc2c(c1-c1ccc(NC(N)=O)c(C)c1)CN(c1cc(C(C)(C)C)ccc1C)CC2 [Example 1.409]
53 | 50 to 500 | Cc1cccc(OCC(C)C)c1-n1nc2c(c1-c1ccc(NC(N)=O)cc1)CN(C1CCCC1)CC2 [Example 1.410]
54 | ≤ 5 | Cc1cccc(OCC(C)C)c1-n1nc2c(c1-c1ccc(NC(N)=O)cc1)CN(c1cccc(C(F)(F)F)c1)CC2 [Example 1.412]
55 | 50 to 500 | Cc1cccc(CCC(C)C)c1-n1nc2c(c1-c1ccc(NC(N)=O)cc1)CN(C(=O)OC(C)(C)C)CC2 [Example 1.414]
56 | 5 to 50 | Cc1ccc(C(F)(F)F)cc1N1CCc2nn(-c3c(C)cccc3OCC(C)C)c(-c3ccc(NC(N)=O)cc3)c2C1 [Example 1.418]
57 | 5 to 50 | Cc1cccc(OCC(C)C)c1-n1nc2c(c1-c1ccc(NC(N)=O)cc1)CN(c1cc(C(C)(C)C)ccc1Cl)CC2 [Example 1.422]
58 | 5 to 50 | Cc1ccc(F)cc1N1CCc2nn(-c3c(C)cccc3OCC(C)C)c(-c3ccc(NC(N)=O)cc3)c2C1 [Example 1.423]
59 | > 500 | Cc1cccc(OCC(C)C)c1-n1nc2c(c1-c1ccc(NC(N)=O)cc1)CN(C(=O)COC(C)(C)C)CC2 [Example 1.424]
60 | 50 to 500 | Cc1cccc(OCC(C)C)c1-n1nc2c(c1-c1ccc(NC(N)=O)cc1)CN(C(=O)CCc1ccccc1)CC2 [Example 1.429]
61 | > 500 | Cc1cccc(OCC(C)C)c1-n1nc2c(c1-c1ccc(NC(N)=O)cc1)CN(C(=O)Cc1ccccc1)CC2 [Example 1.430]
62 | 50 to 500 | Cc1cccc(OCC(C)C)c1-n1nc2c(c1-c1ccc(NC(N)=O)cc1)CN(C(=O)c1ccc(C(C)(C)C)cc1)CC2 [Example 1.432]
63 | 50 to 500 | Cc1cccc(OCC(C)C)c1-n1nc2c(c1-c1ccc(NC(N)=O)cc1)CN(C(=O)c1cccc(C(C)(C)C)c1)CC2 [Example 1.433]
64 | 50 to 500 | Cc1cccc(OCC(C)C)c1-n1nc2c(c1-c1ccc(NC(N)=O)cc1)CN(C(=O)C1CCCC1)CC2 [Example 1.438]
65 | ≤ 5 | Cc1cc(NC(N)=O)ccc1-c1c2c(nn1-c1c(C)cccc1OCC(C)C)CCN(c1cc(C(C)(C)C)ccc1C)C2 [Example 1.441]
66 | 50 to 500 | Cc1cc(C(N)=O)ccc1-c1c2c(nn1-c1c(C)cccc1OCC(C)C)CCN(c1cc(C(C)(C)C)ccc1C)C2 [Example 1.443]
